Series [1] concerns the target T1, human β3-adrenergic receptor (Homo sapiens, UniProt P13945).
T1 construct: expressed in transfected cells; vector pTracer-EF A
Briefly: Measurement of human β3-adrenergic receptor agonist activity (intracellular cAMP, recombinant CHO-K1 cells). The format is cell-based. On the procedure: The obtained recombinant cells were cultured in a 96-well microplate until the cell density reaches 100%. After the medium was removed, the cells were washed once with Dulbecco's modified phosphate buffer solution (hereinafter, abbreviated as PBS; TaKaRa), and then 100 μL of an assay buffer [DMEM, 10% FCS, 20 mM HEPES (pH 7.2), 0.1 mM isobutylmethylxanthine] containing 10 μM isoproterenol was added. As a control, the assay buffer was used without addition of isoproterenol. After incubation at 37° C. for 20 minutes, the cells were washed once with PBS, and then the amount of intracellular cAMP were quantified using a cAMP EIA Kit (Amersham Bioscience). […] The selected recombinant cells were further cultured. […]
The human β3-adrenergic receptor-expressing recombinant 6H4-2d3 was cultured in a 96-well microplate in DMEM containing 10% FCS and 500 μg/mL Zeocin at 37° C. in a 5% CO2 atmosphere. […] The cells were washed once with PBS, and an assay buffer [DMEM, 10% FCS, 20 mM HEPES (pH 7.2), 0.1 mM isobutylmethylxanthine] supplemented with the test substance to be measured was added at 100 μL/well. After incubation at 37° C. for 10 minutes, the cells were washed once with PBS, and then their intracellular cAMP levels were quantified using a cAMP EIA Kit (Amersham Bioscience). […] The same test substance was measured three times and the mean and standard deviation of the measurements were used. […]

For series [2] the following is noted: cited from earlier work.
Series [3] relates to rat β-adrenergic receptor. To be noted: rat adipocytes treated with quercetin; cited from earlier work.
Series [4] relates to 3T3-L1 adipocytes. Put plainly: Measurement of lipolytic effect using 3T3-L1 cells (glycerol release). The format is cell-based, mouse. Particulars: 5 μM to 500 μM; 3 days incubation. The protocol:
3T3-L1 cells which are adipocyte precursor cells derived from mice (purchased from Human Science Research Resource Bank) were added into a 96-well plate at 1×10^4 cells/well, and then cultured in Dulbecco's modified Eagle medium (D-MEM, GIBCO) supplemented with 10% fetal calf serum (FCS) at 37° C. in a 5% CO2 atmosphere. To induce differentiation to adipocytes, right before the cells reaches confluency, the medium was exchanged with 10% FCS-containing D-MEM supplemented with 0.5 mM 3-isobutyl-1-methylxanthine, 2×10^−7 M dexamethasone, and 0.8 μM insulin. Two days later, the medium was exchanged with 10% FCS-containing D-MEM supplemented only with 0.8 μM insulin. […] The culture medium of the cells cultured in the 96-well plate were removed by aspiration, 10% FCS-containing D-MEM containing the test substance was added at 100 μL/well, and after incubation for 3 days, 80 μL of the culture medium was collected from each well, and the amount of glycerol in the culture medium was determined using “F-Kit Glycerol” (Boehringer Mannheim). […] To a test medium, 0.5 to 500 μg/mL of dried lotus leaf extract, 0.5 to 500 μM of quercetin, and 10^−8 M to 10^−5 M of isoproterenol as a positive control were added individually, and the amount of glycerol released into the medium due to degradation of the fat stored in 3T3-L1 adipocytes was measured.

Read-outs that look alike come from different tables or passages of the source.

T1 sequence (P13945 1-402 limits assumed): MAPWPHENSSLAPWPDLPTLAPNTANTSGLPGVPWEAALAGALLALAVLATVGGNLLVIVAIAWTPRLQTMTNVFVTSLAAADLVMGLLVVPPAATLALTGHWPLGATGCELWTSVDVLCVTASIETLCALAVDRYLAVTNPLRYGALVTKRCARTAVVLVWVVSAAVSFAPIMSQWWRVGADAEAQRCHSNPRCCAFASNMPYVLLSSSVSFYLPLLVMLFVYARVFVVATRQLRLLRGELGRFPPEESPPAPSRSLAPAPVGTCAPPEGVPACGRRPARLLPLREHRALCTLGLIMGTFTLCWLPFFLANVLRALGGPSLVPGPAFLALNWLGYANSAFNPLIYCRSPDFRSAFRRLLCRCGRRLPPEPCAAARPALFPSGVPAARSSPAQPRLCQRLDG

In the case of `O=C(O)[C@H]1O[C@@H](Oc2c(-c3ccc(O)c(O)c3)oc3cc(O)cc(O)c3c2=O)[C@H](O)[C@@H](O)[C@@H]1O` [Q3GA, quercetin 3-O-β-D-glucuronide], the “β3-adrenergic receptor agonist activity (cAMP)” value in series [1] (1 μM, 10 μM, 100 μM, 1000 μM, compared with quercetin) is listed as “β3-adrenergic receptor agonist activity similar to that of quercetin”.
As for `O=c1c(O)c(-c2ccc(O)c(O)c2)oc2cc(O)cc(O)c12` [quercetin, 3,3′,4′,5,7-pentahydroxyflavone], the Solubility result was “slightly soluble” in series [2] (boiling water), “poorly soluble” in series [2] (cold alcohol-ether), “insoluble” in series [2] (cold water) and “readily soluble” in series [2] (hot alcohol-glacial acetic acid). Also, in series [1] (15 μM, 30 µM, 60 μM, only in CHO-K1 cells expressing the receptor, not in non-expressing CHO-K1), the “accumulation of cAMP” value is listed as “significant accumulation of cAMP”. Also, in series [3], the cAMP accumulation result was “cAMP accumulates”. Besides, in series [4], the “Lipolysis (glycerol released into the medium)” value was “significantly promoted”.

These data come from patent US20080146657A1, “Plant-Origin Alpha3-Adrenoceptor Agonist and Use of the Same” (priority 2003, published 2008).
